This series relates to glioma-initiating cells (GICs). The series can be described thus: Cell survival of GICs exposed to GHB. The settings on record: exposure of GICs to GHB.

In the case of `O=C(O)CCCO` [GHB, gamma-hydroxybutyrate], the cell survival result was “without affecting cell survival”.
